Results on 28 compounds are retold here after US11414424B2, “Cardiac sarcomere inhibitors” (Cytokinetics, Inc., priority 2018, dated 2022).

Molecules are shown by their SMILES.

The test system of the assay is bovine cardiac myofibrils. Put plainly: Myofibril assay: PK/LDH-coupled steady-state ATPase activity of skinned bovine cardiac myofibrils. Format: biochemical. Particulars: Ca2+ activating to 75% of maximal rate. Put shortly:
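Steady-state ATPase of detergent-skinned bovine left-ventricular myofibrils (1 mg/mL), PK/LDH-coupled NADH read at 340 nm, in PIPES/MgCl2 buffer pH 6.8 with 50 μM ATP, 0.6 mM EGTA and CaCl2 set for 50% or 75% activation. Inhibition of activity measured.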
Regarding `CNC(=O)N1CC2(C1)C(=O)N(c1ccc(Cl)c(F)c1)CC(=O)N2Cc1ccc(C(F)(F)F)cc1` [Compound 155, 8-(4-chloro-3-fluorophenyl)-N-methyl-6,9-dioxo-5-(4-(trifluoromethyl)benzyl)-2,5,8-triazaspiro[3.5]-nonane-2-carboxamide], the “CDMF75 IC15” value worked out at 600 nM.
`CNC(=O)N1CC2(C1)C(=O)N(c1ccc(Cl)cn1)CC(=O)N2Cc1ccc(C(F)(F)F)cc1` [Compound 156, 8-(5-chloropyridin-2-yl)-N-methyl-6,9-dioxo-5-(4-(trifluoromethyl)benzyl)-2,5,8-triazaspiro[3.5]-nonane-2-carboxamide]: the “CDMF75 IC15” value was 7100 nM.
On to `CNC(=O)N1CC2(C1)C(=O)N(c1ccc(C(F)F)cc1)CC(=O)N2Cc1ccc(C(F)(F)F)cc1` [Compound 157, 8-(4-(difluoromethyl)-phenyl)-N-methyl-6,9-dioxo-5(4-(trifluoromethyl)-benzyl)-2,5,8-triazaspiro-[3.5]nonane-2-carboxamide], for which the “CDMF75 IC15” value amounted to 5500 nM.
The figure for `CNC(=O)N1CC2(C1)C(=O)N(c1ccc(C3CC3)cc1)CC(=O)N2Cc1ccc(C(F)(F)F)cc1` [Compound 158, 8-(4-cyclopropylphenyl)-N-methyl-6,9-dioxo-5-(4-(trifluoromethyl)benzyl)-2,5,8-triazaspiro[3.5]-nonane-2-carboxamide] is 9700 nM; for `CNC(=O)N1CC2(C1)C(=O)N(c1ccc(OC(F)F)cc1)CC(=O)N2Cc1ccc(C(F)(F)F)cc1` [Compound 159, 8-(4-(difluoromethoxy)-phenyl)-N-methyl-6,9-dioxo-5-(4-(trifluoro-methyl)benzyl)-2,5,8-triazaspiro[3.5]nonane-2-carboxamide] it is 3200 nM.
On to `CNC(=O)N1CC2(C1)C(=O)N(c1ccc(OC(F)(F)F)cc1)CC(=O)N2Cc1ccc(C(F)(F)F)cc1` [Compound 160, N-methyl-6,9-dioxo-8-(4-(trifluoromethoxy)-phenyl)-5-(4-(trifluoromethyl)benzyl)-2,5,8-triazaspiro[3.5]-nonane-2-carboxamide], for which the “CDMF75 IC15” value stood at 7100 nM.
With `C=C(C)c1ccc(N2CC(=O)N(Cc3ccc(C(F)(F)F)cc3)C3(CN(C(=O)NC)C3)C2=O)cc1` [Compound 161, N-methyl-6,9-dioxo-8-(4-(prop-1-en-2-yl)phenyl)-5-(4-(trifluoromethyl)benzyl)-2,5,8-triazaspiro[3.5]-nonane-2-carboxamide], the “CDMF75 IC15” value worked out at 4700 nM.
Next, `CNC(=O)N1CC2(C1)C(=O)N(c1ccc(C#N)c(F)c1)CC(=O)N2Cc1ccc(C(F)(F)F)cc1` [Compound 162, 8-(4-cyano-3-fluorophenyl)-N-methyl-6,9-dioxo-5-(4-(trifluoromethyl)benzyl)-2,5,8-triazaspiro[3.5]-nonane-2-carboxamide]: 400 nM; `CNC(=O)N1CC2(C1)C(=O)N(c1cccc(Cl)c1)CC(=O)N2Cc1ccc(C(F)(F)F)cc1` [Compound 163, 8-(3-chlorophenyl)-N-methyl-6,9-dioxo-5-(4-(trifluoromethyl)benzyl)-2,5,8-triazaspiro[3.5]-nonane-2-carboxamide]: 7300 nM; `CNC(=O)N1CC2(C1)C(=O)N(c1ccc(C#N)cc1)CC(=O)N2Cc1ccc(Cl)cc1` [Compound 164, 5-(4-chlorobenzyl)-8-(4-cyanophenyl)-N-methyl-6,9-dioxo-2,5,8-triazaspiro-[3.5]nonane-2-carboxamide]: 1600 nM.
For `CNC(=O)N1CC2(C1)C(=O)N(c1ccc(-c3noc(C(F)F)n3)cc1)CC(=O)N2Cc1ccc(C(F)(F)F)cc1` [Compound 165, 8-(4-(5-(difluoromethyl)-1,2,4-oxadiazol-3-yl)-phenyl)-N-methyl-6,9-dioxo-5-(4-(trifluoromethyl)-benzyl)-2,5,8-triazaspiro-[3.5]nonane-2-carboxamide], the “CDMF75 IC15” value was 1400 nM.
For the compound `CNC(=O)N1CC2(C1)C(=O)N(c1ccc(Cl)c(C)c1)CC(=O)N2Cc1ccc(C(F)(F)F)cc1` [Compound 166, 8-(4-chloro-3-methyl-phenyl)-N-methyl-6,9-dioxo-5-(4-(trifluoromethyl)-benzyl)-2,5,8-triazaspiro-[3.5]nonane-2-carboxamide], the “CDMF75 IC15” value was 2400 nM.
Regarding `CNC(=O)N1CC2(C1)C(=O)N(c1ccc(C#N)c(C)c1)CC(=O)N2Cc1ccc(C(F)(F)F)cc1` [Compound 167, 8-(4-cyano-3-methyl-phenyl)-N-methyl-6,9-dioxo-5-(4-(trifluoromethyl)-benzyl)-2,5,8-triazaspiro-[3.5]nonane-2-carboxamide], the “CDMF75 IC15” value was 1300 nM.
As to `CNC(=O)N1CC2(C1)C(=O)N(c1ccc(Cl)cc1F)CC(=O)N2Cc1ccc(C(F)(F)F)cc1` [Compound 168, 8-(4-chloro-2-fluoro-phenyl)-N-methyl-6,9-dioxo-5-(4-(trifluoro-methyl)benzyl)-2,5,8-triazaspiro[3.5]nonane-2-carboxamide], the “CDMF75 IC15” value was determined as 300 nM.
On to `CNC(=O)N1CC2(C1)C(=O)N(c1ccc(C#N)cc1F)CC(=O)N2Cc1ccc(C(F)(F)F)cc1` [Compound 169, 8-(4-cyano-2-fluorophenyl)-N-methyl-6,9-dioxo-5-(4-(trifluoromethyl)benzyl)-2,5,8-triazaspiro[3.5]nonane-2-carboxamide], for which the “CDMF75 IC15” value is 200 nM.
Regarding `CNC(=O)N1CC2(C1)C(=O)N(c1ccc(OC)c(F)c1)CC(=O)N2Cc1ccc(C(F)(F)F)cc1` [Compound 170, 8-(3-fluoro-4-methoxy-phenyl)-N-methyl-6,9-dioxo-5-(4-(trifluoromethyl)-benzyl)-2,5,8-triazaspiro-[3.5]nonane-2-carboxamide], the “CDMF75 IC15” value was 2900 nM.
In the case of `CNC(=O)N1CC2(C1)C(=O)N(c1ccc(OC(F)F)c(F)c1)CC(=O)N2Cc1ccc(C(F)(F)F)cc1` [Compound 171, 8-(4-(difluoromethoxy)-3-fluorophenyl)-N-methyl-6,9-dioxo-5-(4-(trifluoromethyl)benzyl)-2,5/8-triazaspiro[3.5]-nonane-2-carboxamide], the “CDMF75 IC15” value worked out at 2000 nM.
With `CNC(=O)N1CC2(C1)C(=O)N(c1ccc(C(=O)c3ccccc3)cc1)CC(=O)N2Cc1ccc(C(F)(F)F)cc1` [Compound 172, 8-(4-benzoylphenyl)-N-methyl-6,9-dioxo-5-(4-(trifluoromethyl)benzyl)-2,5,8-triazaspiro[3.5]-nonane-2-carboxamide], the “CDMF75 IC15” value came out at 18500 nM.
As for `CNC(=O)N1CC2(C1)C(=O)N(c1ccc(C#N)cc1F)CC(=O)N2Cc1ccc(C2(C(F)(F)F)N=N2)cc1` [Compound 173, 8-(4-cyano-2-fluorophenyl)-N-methyl-6,9-dioxo-5-(4-(3-(trifluoromethyl)-3H-diazirin-3-yl)benzyl)-2,5,8-triazaspiro[3.5]nonane-2-carboxamide], the “CDMF75 IC15” value came out at 600 nM.
The figure for `CC(C)C(=O)N1CC2(C1)C(=O)N(c1ccc(C#N)cc1F)CC(=O)N2Cc1ccc(C(F)(F)F)cc1` [Compound 174, 3-fluoro-4-(2-isobutyryl-6,9-dioxo-5-(4-(trifluoromethyl)benzyl)-2,5,8-triazaspiro[3.5]nonan-8-yl)benzonitrile] is 8000 nM.
`CC(=O)N1CC2(C1)C(=O)N(c1ccc(C#N)cc1F)CC(=O)N2Cc1ccc(Cl)cc1` [Compound 175, 4-(2-acetyl-5-(4-chlorobenzyl)-6,9-dioxo-2,5,8-triazaspiro[3.5]nonan-8-yl)-3-fluorobenzonitrile]: the “CDMF75 IC15” value is 1200 nM.
Turning to `CC(=O)N1CC2(C1)C(=O)N(c1ccc(C#N)cc1F)CC(=O)N2Cc1ccc(F)cc1` [Compound 176, 4-(2-acetyl-5-(4-fluoro-benzyl)-6,9-dioxo-2,5,8-triazaspiro[3.5]nonan-8-yl)-3-fluorobenzonitrile], the “CDMF75 IC15” value came to 8500 nM.
Next, `CNC(=O)N1CC2(C1)C(=O)N(c1ccc3oc(=O)ccc3c1)CC(=O)N2Cc1ccc(C(F)(F)F)cc1` [Compound 177, N-methyl-6,9-dioxo-8-(2-oxo-2H-chromen-6-yl)-5-(4-(trifluoromethyl)benzyl)-2,5,8-triazaspiro[3.5]-nonane-2-carboxamide]: 1800 nM.
Next, `C#Cc1ccc(N2CC(=O)N(Cc3ccc(C4(C(F)(F)F)N=N4)cc3)C3(CN(C(=O)NC)C3)C2=O)c(F)c1` [Compound 178, 8-(4-ethynyl-2-fluoro-phenyl)-N-methyl-6,9-dioxo-5-(4-(3-(trifluoromethyl)-3H-diazirin-3-yl)benzyl)-2,5,8-triazaspiro[3.5]nonane-2-carboxamide]: 800 nM.
With `N#Cc1ccc(N2CC(=O)N(Cc3ccc(C(F)(F)F)cc3)C3(CN(C(=O)C4CCC4)C3)C2=O)c(F)c1` [Compound 180, 4-(2-(cyclobutanecarbonyl)-6,9-dioxo-5-(4-(trifluoromethyl)benzyl)-2,5,8-triazaspiro[3.5]nonan-8-yl)-3-fluorobenzonitrile], the “CDMF75 IC15” value was determined as 1600 nM.
`CNC(=O)N1CC2(C1)C(=O)N(c1ccc3oc(=O)ccc3c1)CC(=O)N2Cc1ccc(C2(C(F)(F)F)N=N2)cc1` [Compound 181, N-methyl-6,9-dioxo-8-(2-oxo-2H-chromen-6-yl)-5-(4-(3-(trifluoromethyl)-3H-diazirin-3-yl)benzyl)-2,5,8-triazaspiro[3.5]-nonane-2-carboxamide]: the “CDMF75 IC15” value worked out at 6200 nM.
Turning to `CC(=O)N1CC2(C1)C(=O)N(c1ncc(Cl)cc1F)CC(=O)N2Cc1ccc(Cl)cc1` [Compound 182, 2-acetyl-8-(5-chloro-3-fluoropyridin-2-yl)-5-(4-chlorobenzyl)-2,5,8-triazaspiro[3.5]nonane-6,9-dione], the “CDMF75 IC15” value turned out to be 2900 nM.
For `CNC(=O)N1CCC2(C1)C(=O)N(c1ccc(C#N)cc1)CC(=O)N2Cc1ccc(C(F)(F)F)cc1` (stereo not shown) [Compound 183, 9-(4-cyanophenyl)-N-methyl-7,10-dioxo-6-(4-(trifluoromethyl)benzyl)-2,6,9-triazaspiro[4.5]-decane-2-carboxamide], the “CDMF75 IC15” value was determined as 4600 nM.
